Source: patent US20250084074A1, “SUBSTITUTED HETEROCYCLES AS HSET INHIBITORS” (MERCK PATENT GMBH, priority 2022, published 2025)

target: HSET full length protein (Homo sapiens (Human), UniProt Q9BW19); test: HSET ADP-Glo Assay S - 3 μM ATP; assay type: biochemical; details: 5 nM HSET, 70 μg/mL microtubule, 80 min at rt, read-out: COMBINED HSET ADP GLO IC50
Procedure, shortened: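 Full-length human HSET (5 nM) with paclitaxel-stabilised bovine brain microtubules (70 μg/mL) in HEPES pH 6.8 buffer was preincubated 10 min with compound. ATP at 3 μM started the reaction, which ran 80 min at rt. ADP formed was measured by ADP-Glo luminescence.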

Sequence of HSET full length protein (Q9BW19 whole entry): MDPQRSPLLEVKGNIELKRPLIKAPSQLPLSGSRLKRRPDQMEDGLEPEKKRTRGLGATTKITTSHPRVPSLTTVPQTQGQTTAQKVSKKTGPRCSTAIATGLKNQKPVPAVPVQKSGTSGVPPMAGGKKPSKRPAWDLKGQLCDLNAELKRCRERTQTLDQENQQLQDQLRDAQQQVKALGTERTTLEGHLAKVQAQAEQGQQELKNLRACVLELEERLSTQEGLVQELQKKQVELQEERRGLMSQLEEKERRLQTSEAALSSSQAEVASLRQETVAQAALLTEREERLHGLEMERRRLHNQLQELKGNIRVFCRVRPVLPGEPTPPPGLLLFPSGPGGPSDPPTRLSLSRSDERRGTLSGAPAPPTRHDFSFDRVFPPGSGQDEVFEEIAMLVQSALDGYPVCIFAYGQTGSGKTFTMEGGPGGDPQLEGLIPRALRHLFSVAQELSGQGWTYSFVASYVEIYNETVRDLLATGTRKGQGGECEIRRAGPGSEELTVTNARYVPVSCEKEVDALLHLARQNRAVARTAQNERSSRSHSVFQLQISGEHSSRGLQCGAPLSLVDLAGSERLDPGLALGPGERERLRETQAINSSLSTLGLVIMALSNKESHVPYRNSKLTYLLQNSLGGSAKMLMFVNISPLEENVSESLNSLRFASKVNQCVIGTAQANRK

Row | Compound | IC50 [nM]
1 | Cc1nc(NC(=O)[C@H]2C[C@@H](Nc3nccc4ccc(C(F)(F)F)cc34)C2)sc1C(=O)OC(C)(C)C [Example 109, tert-Butyl 4-methyl-2-((1s,3s)-3-((7-(trifluoromethyl)isoquinolin-1-yl)amino)cyclobutane-1-carboxamido)thiazole-5-carboxylate] | 1780
2 | Cc1nc(-c2ccc3ccnc(N[C@H]4C[C@@H](C(=O)Nc5nc(C)c(C(=O)OC(C)(C)C)s5)C4)c3c2)no1 [Example 110, tert-Butyl 4-methyl-2-[[3-[[7-(5-methyl-1,2,4-oxadiazol-3-yl)-1-isoquinolyl]amino]cyclobutanecarbonyl]amino]thiazole-5-carboxylate] | 8
3 | Cc1nc(-c2ccc3ccnc(N[C@H]4C[C@@H](C(=O)N(C)c5nc(C)c(C(=O)OC(C)(C)C)s5)C4)c3c2)no1 [Example 111, tert-Butyl 4-methyl-2-[methyl-[3-[[7-(5-methyl-1,2,4-oxadiazol-3-yl)-1-isoquinolyl]amino]cyclobutanecarbonyl]amino]thiazole-5-carboxylate] | 68
4 | Cc1nc(-c2ccc3ccnc(N[C@H]4C[C@@H](C(=O)Nc5nc(Cl)c(C(=O)OC(C)(C)C)s5)C4)c3c2)no1 [Example 112, tert-Butyl 4-chloro-2-[[3-[[7-(5-methyl-1,2,4-oxadiazol-3-yl)-1-isoquinolyl]amino]cyclobutanecarbonyl]amino]thiazole-5-carboxylate] | 54
5 | Cc1nc(-c2ccc3ccnc(N[C@H]4C[C@@H](C(=O)Nc5nc(Cl)c(C(=O)NC(C)(C)C)s5)C4)c3c2)no1 [Example 113, N-tert-butyl-4-chloro-2-[[3-[[7-(5-methyl-1,2,4-oxadiazol-3-yl)-1-isoquinolyl]amino]cyclobutanecarbonyl]amino]thiazole-5-carboxamide] | 1380

Second part, the compound after the results:

Row | IC50 [nM] | Compound
6 | 144 | CCOC(=O)c1sc(NC(=O)[C@H]2C[C@@H](Nc3nccc4ccc(-c5noc(C)n5)cc34)C2)nc1C(F)F [Example 116, Ethyl-4-(difluoromethyl)-2-[[3-[[7-(5-methyl-1,2,4-oxadiazol-3-yl)-1-isoquinolyl]amino]cyclobutanecarbonyl]amino]thiazole-5-carboxylate]
7 | 9490 | Cc1ccc2ccnc(N[C@H]3C[C@@H](C(=O)Nc4nc(C)c(C(C)(C)C)s4)C3)c2c1 [Example 117, N-(5-tert-butyl-4-methyl-thiazol-2-yl)-3-[(7-methyl-1-isoquinolyl)amino]cyclobutanecarboxamide]
8 | 8410 | Cc1noc(-c2sc(NC(=O)CCNC(=O)c3cccc(-c4noc(C)n4)c3)nc2C)n1 [Example 118, 3-(5-methyl-1,2,4-oxadiazol-3-yl)-N-(3-((4-methyl-5-(3-methyl-1,2,4-oxadiazol-5-yl)thiazol-2-yl)amino)-3-oxopropyl)benzamide]
9 | 157 | CCCOC(=O)c1cc(NC(=O)CCNC(=O)c2cccc(-c3noc(C)n3)c2)nn1C [Example 120, Propyl-1-methyl-3-(3-(3-(5-methyl-1,2,4-oxadiazol-3-yl)benzamido)propanamido)-1 H-pyrazole-5-carboxylate]
10 | 36 | CCCOC(=O)c1sc(N(C)C(=O)CCNC(=O)c2cccc(-c3noc(C)n3)c2)nc1C [Example 121, Propyl-4-methyl-2-(N-methyl-3-(3-(5-methyl-1,2,4-oxadiazol-3-yl)benzamido)propanamido)thiazole-5-carboxylate]
11 | 27 | Cc1nc(-c2cccc(C(=O)NCCC(=O)Nc3nc(C)c(C(=O)OC4CCCC4)s3)c2)no1 [Example 122, Cyclopentyl-4-methyl-2-(3-(3-(5-methyl-1,2,4-oxadiazol-3-yl)benzamido)propanamido)thiazole-5-carboxylate]
12 | 9 | CCCCCCOC(=O)c1sc(NC(=O)CCNC(=O)c2cccc(-c3noc(C)n3)c2)nc1C [Example 123, Hexyl-4-methyl-2-(3-(3-(5-methyl-1,2,4-oxadiazol-3-yl)benzamido)propanamido)thiazole-5-carboxylate]
